# Measured values taken from PMC5839409, “Targeting intracellular B2 receptors using novel cell-penetrating antagonists to arrest growth and induce apoptosis in human triple-negative breast cancer” (Oncotarget, 2018).
# Legend:
# MDA-MB-231 cells [1] = assay: MTT cytotoxicity (cell viability) assay; type: cell-based, human; settings: MTT assay after 72h drug exposure; means ± s.e.m., n = 6 to 8; read-out: IC50 values (cytocidal activity)
# Experimental: (§1) Cell proliferation assay on MDA-MB-231 cells was determined with colorimetric MTT as we described. Briefly, cells were seeded in a 96 wells plate at 2,000 cells/well in DMEM media supplemented with 10% FBS for 24h at 37°C. Cells were then incubated with and without the B2RAs at the indicated concentrations for the time shown. At the end of treatment period, MTT (0.25 mg/ml) was added to the cells and incubated for 1h30 at 37°C. Thereafter, the cell medium was removed, the formazan product solubilized in acidified isopropanol (100 µl of 1N HCl/anhydrous isopropanol 1:25) and the absorbance determined at 570 nm with an ELISA microplate reader (Spectra Max Plus, Molecular Devices, Sunnyvale, CA). For assessing the cytotoxicity of B2RAs and chemotherapeutic agents (carmustine, doxorubicin, carboplatin, temozolomide and paclitaxel), cells were grown to confluency in multi-well plates and exposed to starving media (DMEM without FBS) for 24h before beginning of the antagonist treatment. Cells were then incubated with MTT and treated exactly as described above. Cell viability was expressed as a percentage of optical density (OD) values obtained upon treatment relative to control.
# MDA-MB-231 cells [2] = assay: MTT proliferation assay; type: cell-based, human; settings: B2R shRNA knockdown MDA-MB-231 cells vs scrambled shRNA
# Experimental: as §1
# MDA-MB-231 cells [3] = assay: cDNA SuperArray Human Signal Transduction Pathway Finder analysis; type: cell-based; settings: 10 μM / 3h, relative to untreated controls
# Source text: cDNA SuperArray analysis manufacturer ’s instructions (SuperArray Bioscience). For cDNA microarray analysis, equal amounts of cRNA (3
# The GEArray Q-series array of Human Signal µg) were biotinylated, then the probes were hybridized Transduction Pathway Finder (catalog OHS-014; onto the membranes containing specific genes for several SuperArray Bioscience) was used to quantify the transduction pathways. After extensive washing, specific expression of 113 genes representative of 18 signal hybridization onto the membranes was detected by transduction pathways. […] A […]
# cells were incubated or not with FR173657 (10 µM) in fold change cutoff of ≥1.5 as compared to control cells DMEM for 3 hours at 37°C. At the end of treatments, cells was set to identify regulated genes. were collected, lysed and total RNA was purified using an ArrayGrade Total RNA Isolation kit according to the Supplementary Table 1: Marked gene expression changes in FR173657-treated MDA-MB-231 cells relative to untreated controls
# Description GenBank acc. Symbol Fold change
# NLR family, apoptosis inhibitory protein NM_004536 NAIP 1,50
# Cyclin-dependent kinase inhibitor 1B (p27, Kip1) NM_004064 CDKN1B 1,70
# Cyclin-dependent kinase inhibitor 2B (p15, inhibits CDK4) NM_004936 CDKN2B 1,80 Cyclin-dependent kinase inhibitor 2C (p18, inhibits CDK4) NM_078626 CDKN2C 2,20 Caudal type homeobox transcription factor 1 NM_001804 CDX1 1,80
# CCAAT/enhancer binding protein (C/EBP), beta NM_005194 CEBPB 1,70 […]
# Platelet/endothelial cell adhesion molecule (CD31 antigen) NM_000442 PECAM1 3,90 Nitric oxide synthase 2A (inducible, hepatocytes) NM_000625 NOS2A –1,50 […]
# Overall, the data generated from the transcriptional profiling study are, in general, in good agreement with the strong anticancer activity of FR173657 observed in MDA-MB-231 cells.
compound,measurement,setting,value
CC(=O)Nc1ccc(/C=C/C(=O)NCC(=O)N(C)c2ccc(Cl)c(COc3cccc4ccc(C)nc34)c2Cl)cn1 [FR 173657],IC50,MDA-MB-231 cells [1],20 ± 1 µM
same,cytostatic activity after B2R downregulation,MDA-MB-231 cells [2],significantly attenuated
same,Fold change BMP4 gene expression,MDA-MB-231 cells [3],"1,50 fold"
same,Fold change CCL20 gene expression,MDA-MB-231 cells [3],"1,50 fold"
same,"Fold change CDKN1B (p27, Kip1) gene expression",MDA-MB-231 cells [3],"1,70 fold"
same,Fold change CDKN2B gene expression,MDA-MB-231 cells [3],"1,80 fold"
same,Fold change CDKN2C gene expression,MDA-MB-231 cells [3],"2,20 fold"
same,Fold change CDX1 gene expression,MDA-MB-231 cells [3],"1,80 fold"
same,Fold change CEBPB gene expression,MDA-MB-231 cells [3],"1,70 fold"
same,Fold change CTSD gene expression,MDA-MB-231 cells [3],"1,60 fold"
same,Fold change CXCL9 gene expression,MDA-MB-231 cells [3],"1,70 fold"
same,Fold change EGR1 gene expression,MDA-MB-231 cells [3],"1,60 fold"
same,Fold change HOXB1 gene expression,MDA-MB-231 cells [3],"1,60 fold"
same,Fold change MMP10 gene expression,MDA-MB-231 cells [3],"3,50 fold"
same,Fold change NAIP gene expression,MDA-MB-231 cells [3],"1,50 fold"
same,Fold change NOS2A gene expression,MDA-MB-231 cells [3],"–1,50 fold"
same,Fold change PECAM1 gene expression,MDA-MB-231 cells [3],"3,90 fold"
same,Fold change TFRC gene expression,MDA-MB-231 cells [3],"–1,50 fold"
